This note sets out measurements from patent publication US12576155B2, “Senolytic and antiinflammatory prodrugs and methods of use thereof” (priority 2019, dated 2026).

Holding throughout (type): cell-based
The test system of data set [1] is β-galactosidase positive senescent human embryonic fibroblasts (HEFs). In words: CCK-8 cell viability, SSK2 in etoposide-induced senescent HEFs. The note with it: increasing doses, 72 h. The procedure:
(§1) For etoposide-induced senescence, MEFs were treated with 2 μM etoposide for 20 hours, and HEFs were treated with 10 μM etoposide for 12-18 hours. Three days after treatment, cells were sub-cultured at a 1:3 ratio for 72 hours in a fresh medium before further analysis.
Cultured cells were washed once with PBS and fixed in β-galactosidase staining fix solution for 15 min at room temperature. Cells were then washed three times with PBS and incubated with β-galactosidase staining solution (Beyotime Biotechnology) for 16-20 hours at 37° C. For 12-well plates, 1 ml of β-galactosidase staining solution was added to each well. The plate was sealed with Parafilm to prevent evaporation of the staining medium. After the overnight incubation, cells were washed with PBS and observed under a bright field microscope. For β-galactosidase staining of frozen sections, the frozen sections were dried at 37° C. for 20-30 min and then fixed in β-galactosidase staining fix solution for 15 min at room temperature. The frozen sections were washed three times with PBS and incubated with β-galactosidase staining solution overnight at 37° C. […]
Cell Counting Kit-8 (CCK-8) analysis was also used to assess cell viability. […] The absorbance was measured at 450 nm wavelength.

The subject of data set [2] is primary human chondrocytes isolated from Osteoarthritis patient. In words: Viability / apoptosis of primary human OA chondrocytes (CCK-8, Annexin V flow cytometry). Here is the method: Fibroblasts were digested into single cell suspensions by incubation with 0.25% trypsin-EDTA (Invitrogen) at 37° C. for 3-5 min or with accutase at 37° C. for 10 min. Cells were then stained with FITC annexin V and propidium iodide (PI) according to the manufacturer's protocol (FITC Annexin V Apoptosis Detection Kit I, BD Pharmingen™). For chondrocytes Annexin V/7-AAD analysis, the trypsinized live chondrocytes and floating cells were collected, centrifuged and washed with PBS. Cells were stained with the Annexin V Apoptosis Detection Kit (Biolegend, 640934) according to the manufacturer's instruction. Before the flow cytometric analysis, the precision count beads (Biolegend, 424902) were added to count the absolute live cell numbers. Flow cytometry was performed within one hour on an Aria III (BD Biosciences) or FACSVerse (BD Biosciences). Data were analyzed using FlowJo software (FlowJo LLC).
Cell Counting Kit-8 (CCK-8) analysis was also used to assess cell viability. Senescent and non-senescent cells or chondrocytes were inoculated into 96-well plates and cultured overnight. Then cells were treated with vehicle (0.05% DMSO) or different concentrations of SSK2. After 48 h or 72 h, CCK-8 solution (C0041, Beyotime) was added to each well as 1:10 ratio and inoculated for another 2 h. The absorbance was measured at 450 nm wavelength.

Data set [3] has as its system primary mouse fibroblasts and their replication-induced senescent counterparts. In words: Cell viability testing, senescent vs non-senescent primary mouse fibroblasts. The procedure:
Mouse embryonic fibroblasts (MEFs) were isolated from E13.5 embryos as described previously (Zhao et al., Cell Stem Cell 23, 31-45 e37([…])). Newborn mouse skin fibroblasts (NBFs) were isolated from the skin of day 1-3 newborn mice. Adult mouse lung fibroblasts were isolated from 2-month-old and 23-month-old mice. Briefly, mouse embryonic tissues, skin and lung were obtained from described donor mice. Then, these tissues were minced with forceps and incubated in 2 mg/ml collagenase IV (Gibco) for 2-4 hours at 37° C. After enzyme treatment, cells were collected by centrifugation and resuspended in high-glucose DMEM (Gibco) supplemented with 10% fetal bovine serum (FBS) and 1% penicillin-streptomycin (Gibco). The three types of mouse primary cells were all cultured in a humidified incubator at 37° C. and 5% CO2.
To avoid replication-induced senescent cells, low-passage proliferative NBFs (<3 passages), MEFs (<3 passages), mouse lung fibroblasts (<3 passages), HEFs (<10 passages), and HUVECs (<6 passages) were used as normal controls. To induce cell quiescence, MEFs were cultured in DMEM without FBS for 2 days.
(§2) For replication-induced senescence, cells were passaged until they lost the ability to proliferate and became senescent. NBFs were used as senescent cells after approximately 8-9 passages or 12 population doublings. HEFs were used after approximately 35 passages or 50 population doublings. HUVECs were senescent after approximately 18 passages or 24 population doublings.
To test the viability of senescent and non-senescent cells treated with SSK1, cells were stained with a mixture of Hoechst 33342 and propidium iodide (PI) (CA1120, Solarbio) to distinguish living and dead cells. After treatment with the small molecules, the cell culture medium was removed, and the cells were washed once with PBS. […] The plate was incubated at 4° C. for 30 min and observed on a fluorescence microscope or automatic cell imaging system. Viable cells were quantified using a MD Image Xpress Micro XL (Molecular Devices).

Data set [4] concerns human senescent fibroblasts induced by different stimuli. In words: Cell viability, senescent and non-senescent human embryonic fibroblasts (HEFs). The note with it: human senescent cells; panel of FDA-approved drugs. Here is the method: Human embryonic skin fibroblasts (HEFs) were obtained as previously described. Briefly, human embryonic skin tissues, obtained from aborted tissue with informed patient consent, were minced with forceps and incubated in 1 mg/ml collagenase IV for 1-2 hours at 37° C. After enzyme treatment, cells were collected by centrifugation and resuspended in HEF medium (Dulbecco's modified Eagle's medium (DMEM, Gibco) containing 10% fetal bovine serum (FBS, Ausbian), 1% GlutaMAX (Gibco), 1% Non-Essential Amino Acids (NEAA, Gibco) and 1% penicillin/streptomycin (Gibco). Cells were plated on 10 cm tissue culture dishes and grown in 10% FBS DMEM.
as §2
(§3) For ionizing radiation-induced senescence, MEFs and HEFs were exposed to 10 Gy of ionizing irradiation in an RS 2000 X-ray Biological Irradiator (Rad Source Technologies, Inc.) at a dose rate of 1.205 Gy/min. The day after irradiation, MEFs or HEFs were passaged at a 1:3 dilution and cultured for another three days. Then these cells were plated to carry out further experiments.
as §1
(§4) To test the viability of senescent and non-senescent cells treated with SSK1, cells were stained with a mixture of Hoechst 33342 and propidium iodide (PI) (CA1120, Solarbio) to distinguish living and dead cells. […] The plate was incubated at 4° C. for 30 min and observed on a fluorescence microscope or automatic cell imaging system. Viable cells were quantified using a MD Image Xpress Micro XL (Molecular Devices).

Another data set relates to senescent cells. In words: Cell viability, SSK1 combined with p38 inhibitors. Particulars: SSK1 0.5 μM plus inhibitor. The procedure:
To test the viability of senescent and non-senescent cells treated with SSK1, cells were stained with a mixture of Hoechst 33342 and propidium iodide (PI) (CA1120, Solarbio) to distinguish living and dead cells. After treatment with the small molecules, the cell culture medium was removed, and the cells were washed once with PBS. Then, the cells were stained according to the manufacturer's protocol, where the final concentrations of Hoechst 33342 and PI were 5 μg/ml and 2 μg/ml in PBS buffer. The plate was incubated at 4° C. for 30 min and observed on a fluorescence microscope or automatic cell imaging system. Viable cells were quantified using a MD Image Xpress Micro XL (Molecular Devices).

Data set [5] concerns senescent human fibroblasts. In words: Other reported senolytic compounds in cultured senescent human fibroblasts. The note with it: hydroperoxide-, replication-, irradiation- and etoposide-induced senescent cells.
Excerpt: as §2, §3
For etoposide-induced senescence, MEFs were treated with 2 μM etoposide for 20 hours, and HEFs were treated with 10 μM etoposide for 12-18 hours. […]
as §4

On to `O=C(Nc1ccn([C@@H]2O[C@H](CO)C(O)C2(F)F)c(=O)n1)OCc1ccc(O[C@@H]2OC(CO)[C@H](O)C(O)C2O)c([N+](=O)[O-])c1` (stereo partly shown) [SSK2], for which the “Selective killing of senescent HEFs (viable cells)” value in data set [1] is “efficiently and selectively kill β-galactosidase positive senescent human embryonic fibroblasts (HEFs) in a dose-dependent manner”. The “Elimination of OA chondrocytes” value in data set [2] (FIG. 16: 10 μM, 72 h, FIG. 17: increasing concentrations) is on record as “efficiently eliminate primary human chondrocytes isolated from Osteoarthritis patient”. Also, the “Viable human OA chondrocytes with increasing concentrations” value in data set [2] (SSK2 treatment for 48 h / 72 h as printed) is “Dose-dependent elimination of senescent cells”. Regarding `Nc1ccn([C@@H]2O[C@H](CO)[C@@H](O)C2(F)F)c(=O)n1` [gemcitabine], the “Selective killing of senescent cells (viable cells)” value in data set [3] (increasing doses, senescent vs non-senescent cells) was “killed both cell types”. Further, the “Cytotoxicity for senescent cells” value in data set [3] (mouse senescent cells, panel of FDA-approved drugs) is “killed both mouse and human senescent cells effectively and potently”; in data set [4] it was “killed both mouse and human senescent cells effectively and potently”.

`C[S+]([O-])c1ccc(-c2nc(-c3ccncc3)c(-c3ccc(F)cc3)[nH]2)cc1` (stereo not shown) [SB203580]: the “Viable cells, SSK1 combined with p38 MAPK inhibitor” value in the data set on senescent cells is listed as “impaired SSK1's ability to specifically kill senescent cells”. Consider `Oc1ccc(-c2nc(-c3ccncc3)c(-c3ccc(F)cc3)[nH]2)cc1` [SB202190], for which, in the data set on senescent cells, the “Viable cells, SSK1 combined with p38 MAPK inhibitor” value is “impaired SSK1's ability to specifically kill senescent cells”.

As for `CC1(C)CCC(c2ccc(Cl)cc2)=C(CN2CCN(c3ccc(C(=O)NS(=O)(=O)c4ccc(N[C@H](CCN5CCOCC5)CSc5ccccc5)c(S(=O)(=O)C(F)(F)F)c4)cc3)CC2)C1` [ABT263], the “Selective killing of senescent human fibroblasts compared with proliferative cells” value in data set [5] is “selectively killed hydroperoxide-induced senescent human fibroblasts but not replication-induced cells”.

Take `Cc1ccc(-n2nc(C(C)(C)C)cc2NC(=O)Nc2ccc(OCCN3CCOCC3)c3ccccc23)cc1` [Birb796]: the “Viable cells, SSK1 combined with p38 MAPK inhibitor” value in the data set on senescent cells is reported as “impaired SSK1's ability to specifically kill senescent cells”.
